Each block holds one compound with its values, some of them ahead of it.
Experiments:
BCL-2 = BCL-2 (Homo sapiens (Human), UniProt P10415); assay: BCL-2 TR-FRET Assay (primary PPI inhibition); assay type: binding; conditions: 60 min incubation; read-out: BCL2 (IC50 code, BCL-2 TR-FRET)
Method: BCL-2 TR-FRET Assay (BPS Bioscience, #50222)
(§1) The following assay concentrations and times were used: 3 ng BCL-2, 5 μl of 1:100 anti-His Tb-labeled donor, 5 μl of 1:100 Dye-labeled acceptor, 5 μl of 1:40 BCL-2 Peptide Ligand, and 2 ul of test compound, with 60 min incubation time. The results of the assay were read using a Clariostar (BMG Labtech) plate reader with the following parameters: TR FRET, 340ex/620 and 665em; 60 μsec Delay; and 500 μsec integration.

BCL-XL = BCL-XL (Homo sapiens (Human), UniProt Q07817); assay: BCL-XL TR-FRET Assay (primary PPI inhibition); assay type: binding; conditions: 60 min incubation; read-out: BCLxL (IC50 code, BCL-XL TR-FRET)
Chain of BCL-XL (Q07817 whole entry): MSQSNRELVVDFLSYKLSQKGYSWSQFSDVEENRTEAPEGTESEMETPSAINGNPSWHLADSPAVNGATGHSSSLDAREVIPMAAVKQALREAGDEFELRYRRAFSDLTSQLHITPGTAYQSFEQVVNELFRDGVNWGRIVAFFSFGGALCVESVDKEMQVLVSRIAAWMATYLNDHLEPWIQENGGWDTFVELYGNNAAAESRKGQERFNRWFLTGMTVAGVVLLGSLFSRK
Method: BCL-XL TR-FRET Assay (BPS Bioscience, #50223)
as §1, with “used: 10.5” for “used: 3”, “ng BCL-XL,” for “ng BCL-2,”, “of 1:80 BCL-XL” for “of 1:40 BCL-2”, “2 μl” for “2 ul”

RS4-11 cells = assay: Cell viability assay (CellTiter-Glo), RS4-11; assay type: cell-based; conditions: Homo sapiens, 72 h, 3 days, read-out: RS4-11 (CC50 code)
Method: (§2) Culture medium for HEK293—DMEM (PanEco, Cat #C420) was used. RPMI-1640 (PanEco, Cat #C363) was used for the rest of the cell lines.
(§3) Compounds were prepared as 200× stocks with serial dilution in 100% DMSO with a final concentration of 1×.
(§4) […] were dispersed in 40 μL aliquots in 384-well plates at a concentration of 2000 cells per well for HEK293 and at a concentration of 4000 cells per well for the rest of the cell lines using a robotic station Biomek (Beckman). Before adding compounds, the cells were incubated at 37° C. (HEK293 were incubated for a day before adding compounds).
(§5) A dilution plate was prepared by pouring 78 μL of the appropriate culture medium using a robotic station Biomek (Beckman). Sequentially, using a robotic station, 2 μL of substances were taken and added to 78 μL of culture medium (dilution of compounds 40×). 10 μL aliquots were taken and added to the plates of the cells (dilution of compounds 5×). The plates were incubated for 3 days at a temperature 37° C. After 3 days, 10 μL of CellTiter-Glo (Promega) was added to the cells and the luminescence was measured.

MOLT-4 cells = assay: Cell viability assay (CellTiter-Glo), MOLT-4; assay type: cell-based; conditions: Homo sapiens, 72 h, 3 days, read-out: MOLT-4 (CC50 code)
Method: as §2, §3, §4, §5

[1] = Cell viability assay (CellTiter-Glo), HEK293; assay type: cell-based; conditions: human, HEK293 cells, read-out: HEK293 (CC50 code)
Method: as §2, §3, §4, §5

[2] = tested on: caspase-3 and -7 activities in RS4-11 cells; assay: Caspase-3/7 activation (Caspase-Glo 3/7) in RS4-11 cells; assay type: cell-based; conditions: Homo sapiens, 3.5 h incubation, read-out: Cas-3/7 (EC50 code)
Method: The Caspase-Glo 3/7 Assay is homogeneous, luminescent assay that measures caspase-3 and -7 activities. The assay provides a luminogenic caspase-3/7 substrate, which contains the tetrapeptide sequence DEVD, in a reagent optimized for caspase activity.
Incubate RS4-11 cells with varying concentrations of test compounds for 3.5 h in a humidified incubator at 37° C. and 5% CO2 and 30 min at r.t. Add 15 μl Caspase-Glo reagent to each well and incubate the plate for 30 min at r.t. Read on ClarioStar Plus instrument.
Promega Caspase-Glo (Promega, #8212); Frozen RS4-11 cells; 384-well white plate (Corning, #3570).
ClarioStar Plus; Biomek FX for liquid handling (Beckman Coulter).

Chain of BCL-2 (P10415 whole entry): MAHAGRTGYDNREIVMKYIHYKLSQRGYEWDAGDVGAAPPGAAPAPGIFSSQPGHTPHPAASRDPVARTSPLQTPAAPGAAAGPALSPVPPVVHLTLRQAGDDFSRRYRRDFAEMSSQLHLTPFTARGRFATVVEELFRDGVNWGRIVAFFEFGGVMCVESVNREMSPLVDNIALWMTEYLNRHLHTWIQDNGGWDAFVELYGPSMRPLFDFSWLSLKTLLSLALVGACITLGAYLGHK

Compound: O=C(c1cc(-c2cc3c(cc2C(=O)N2Cc4ccccc4C[C@H]2CN2CCOCC2)OCO3)n2c1CCCC2)N(Cc1ccccc1)c1ccc(O)cc1 [Compound 15, N-benzyl-N-(4-hydroxyphenyl)-3-(6-{[(3S)-3-(morpholin-4-ylmethyl)-3,4-dihydroisoquinolin-2(1H)-yl]carbonyl}-1,3-benzodioxol-5-yl)-5,6,7,8-tetrahydroindolizine-1-carboxamide]
IC50 (BCL-2): 5 to 10 nM
IC50 (BCL-XL): ≤ 2000 nM
CC50 (RS4-11 cells): 100 to 200 nM
CC50 (MOLT-4 cells): ≤ 2000 nM
CC50 at 3 days [1]: > 25000 nM
EC50 [2]: 100 to 250 nM

Compound: COc1cccc(CN(C(=O)c2cc(-c3cc4c(cc3C(=O)N3Cc5ccccc5C[C@H]3CN3CCOCC3)OCO4)n3c2CCCC3)c2ccc(O)cc2)c1C [Compound 3, N-(4-hydroxyphenyl)-N-(3-methoxy-2-methylbenzyl)-3-(6-{[(3S)-3-(morpholin-4-ylmethyl)-3,4-dihydroisoquinolin-2(1H)-yl]carbonyl}-1,3-benzodioxol-5-yl)-5,6,7,8-tetrahydroindolizine-1-carboxamide]
IC50 (BCL-2): ≤ 5 nM
IC50 (BCL-XL): ≤ 2000 nM
CC50 (RS4-11 cells): ≤ 100 nM
CC50 (MOLT-4 cells): ≤ 2000 nM
CC50 at 3 days [1]: > 25000 nM
EC50 [2]: ≤ 100 nM

Compound: O=C(c1cc(-c2cc3c(cc2C(=O)N2Cc4ccccc4C[C@H]2CN2CCOCC2)OCO3)n2c1CCCC2)N(Cc1cccc(C(F)(F)F)c1)c1ccc(O)cc1 [Compound 16, N-(4-hydroxyphenyl)-3-(6-{[(3S)-3-(morpholin-4-ylmethyl)-3,4-dihydroisoquinolin-2(1H)-yl]carbonyl}-1,3-benzodioxol-5-yl)-N-[3-(trifluoromethyl)benzyl]-5,6,7,8-tetrahydroindolizine-1-carboxamide]
IC50 (BCL-2): 10 to 50 nM
IC50 (BCL-XL): > 4000 nM
CC50 (RS4-11 cells): 100 to 200 nM
CC50 (MOLT-4 cells): > 10000 nM
CC50 at 3 days [1]: > 25000 nM
EC50 [2]: 100 to 250 nM

Compound: O=C(c1cc(-c2cc3c(cc2C(=O)N2Cc4ccccc4C[C@H]2CN2CCOCC2)OCO3)n2c1CCCC2)N(Cc1ccccc1-c1ccccc1)c1ccc(O)cc1 [Compound 18, N-(biphenyl-2-ylmethyl)-N-(4-hydroxyphenyl)-3-(6-{[(3S)-3-(morpholin-4-ylmethyl)-3,4-dihydroisoquinolin-2(1H)-yl]carbonyl}-1,3-benzodioxol-5-yl)-5,6,7,8-tetrahydroindolizine-1-carboxamide]
IC50 (BCL-2): 10 to 50 nM
IC50 (BCL-XL): ≤ 2000 nM
CC50 (RS4-11 cells): > 200 nM
CC50 (MOLT-4 cells): 2000 to 10000 nM
CC50 at 3 days [1]: > 25000 nM
EC50 [2]: > 250 nM

Compound: COc1c(C)cnc(CN(C(=O)c2cc(-c3cc4c(cc3C(=O)N3Cc5ccccc5C[C@H]3CN3CCOCC3)OCO4)n3c2CCCC3)c2ccc(O)cc2)c1C [Compound 23, N-(4-hydroxyphenyl)-N-[(4-methoxy-3,5-dimethylpyridin-2-yl)methyl]-3-(6-{[(3S)-3-(morpholin-4-ylmethyl)-3,4-dihydroisoquinolin-2(1H)-yl]carbonyl}-1,3-benzodioxol-5-yl)-5,6,7,8-tetrahydroindolizine-1-carboxamide]
IC50 (BCL-2): 10 to 50 nM
IC50 (BCL-XL): > 4000 nM
CC50 (RS4-11 cells): > 200 nM
CC50 (MOLT-4 cells): > 10000 nM
CC50 at 3 days [1]: 10000 to 25000 nM
EC50 [2]: > 250 nM

Compound: O=C(c1cc(-c2cc3c(cc2C(=O)N2Cc4ccccc4C[C@H]2CN2CCOCC2)OCO3)n2c1CCCC2)N(Cc1ccccc1Cl)c1ccc(O)cc1 [Compound 33, N-(2-chlorobenzyl)-N-(4-hydroxyphenyl)-3-(6-{[(3S)-3-(morpholin-4-ylmethyl)-3,4-dihydroisoquinolin-2(1H)-yl]carbonyl}-1,3-benzodioxol-5-yl)-5,6,7,8-tetrahydroindolizine-1-carboxamide]
IC50 (BCL-2): ≤ 5 nM
IC50 (BCL-XL): ≤ 2000 nM
CC50 (RS4-11 cells): ≤ 100 nM
CC50 (MOLT-4 cells): ≤ 2000 nM
CC50 at 3 days [1]: 10000 to 25000 nM
EC50 [2]: ≤ 100 nM

Compound: Cc1cccc(Cl)c1CN(C(=O)c1cc(-c2cc3c(cc2C(=O)N2Cc4ccccc4C[C@H]2CN2CCOCC2)OCO3)n2c1CCCC2)c1ccc(O)cc1 [Compound 34, N-(2-chloro-6-methylbenzyl)-N-(4-hydroxyphenyl)-3-(6-{[(3S)-3-(morpholin-4-ylmethyl)-3,4-dihydroisoquinolin-2(1H)-yl]carbonyl}-1,3-benzodioxol-5-yl)-5,6,7,8-tetrahydroindolizine-1-carboxamide]
IC50 (BCL-2): > 50 nM
IC50 (BCL-XL): > 4000 nM
CC50 (RS4-11 cells): > 200 nM
CC50 (MOLT-4 cells): ≤ 2000 nM
CC50 at 3 days [1]: > 25000 nM
EC50 [2]: > 250 nM

Compound: O=C(c1cc(-c2cc3c(cc2C(=O)N2Cc4ccccc4C[C@H]2CN2CCOCC2)OCO3)n2c1CCCC2)N(Cc1ccc(C(F)(F)F)cc1)c1ccc(O)cc1 [Compound 24, N-(4-hydroxyphenyl)-3-(6-{[(3S)-3-(morpholin-4-ylmethyl)-3,4-dihydroisoquinolin-2(1H)-yl]carbonyl}-1,3-benzodioxol-5-yl)-N-[4-(trifluoromethyl)benzyl]-5,6,7,8-tetrahydroindolizine-1-carboxamide]
IC50 (BCL-2): 10 to 50 nM
IC50 (BCL-XL): > 4000 nM
CC50 (RS4-11 cells): > 200 nM
CC50 (MOLT-4 cells): 2000 to 10000 nM
CC50 at 3 days [1]: ≤ 10000 nM
EC50 [2]: > 250 nM

IC50 (BCL-2): > 50 nM
IC50 (BCL-XL): > 4000 nM
EC50 [2]: > 250 nM
Compound: Cc1c(CN(C(=O)c2cc(-c3cc4c(cc3C(=O)N3Cc5ccccc5C[C@H]3CN3CCOCC3)OCO4)n3c2CCCC3)c2ccc(O)cc2)cccc1[N+](=O)[O-] [Compound 50, N-(4-Hydroxyphenyl)-N-[(2-methyl-3-nitro-phenyl)methyl]-3-[6-[(3S)-3-(morpholinomethyl)-3,4-dihydro-1H-isoquinoline-2-carbonyl]-1,3-benzodioxol-5-yl]-5,6,7,8-tetrahydroindolizine-1-carboxamide]
CC50 (RS4-11 cells): > 200 nM
CC50 (MOLT-4 cells): 2000 to 10000 nM
CC50 at 3 days [1]: > 25000 nM

Compound: Cc1ccccc1CN(C(=O)c1cc(-c2cc3c(cc2C(=O)N2Cc4ccccc4C[C@H]2CN2CCOCC2)OCO3)n2c1CCCC2)c1ccc(O)cc1 [Compound 4, N-(4-hydroxyphenyl)-N-(2-methylbenzyl)-3-(6-{[(3S)-3-(morpholin-4-ylmethyl)-3,4-dihydroisoquinolin-2(1H)-yl]carbonyl}-1,3-benzodioxol-5-yl)-5,6,7,8-tetrahydroindolizine-1-carboxamide]
IC50 (BCL-2): ≤ 5 nM
IC50 (BCL-XL): ≤ 2000 nM
CC50 (RS4-11 cells): ≤ 100 nM
CC50 (MOLT-4 cells): > 10000 nM
CC50 at 3 days [1]: > 25000 nM
EC50 [2]: ≤ 100 nM

Compound: O=C(c1cc(-c2cc3c(cc2C(=O)N2Cc4ccccc4C[C@H]2CN2CCOCC2)OCO3)n2c1CCCC2)N(Cc1cccc(F)c1)c1ccc(O)cc1 [Compound 21, N-(3-fluorobenzyl)-N-(4-hydroxyphenyl)-3-(6-{[(3S)-3-(morpholin-4-ylmethyl)-3,4-dihydroisoquinolin-2(1H)-yl]carbonyl}-1,3-benzodioxol-5-yl)-5,6,7,8-tetrahydroindolizine-1-carboxamide]
IC50 (BCL-2): 10 to 50 nM
IC50 (BCL-XL): 2000 to 4000 nM
CC50 (RS4-11 cells): 100 to 200 nM
CC50 (MOLT-4 cells): > 10000 nM
CC50 at 3 days [1]: > 25000 nM
EC50 [2]: > 250 nM

Compound: Cc1cccc(CN(C(=O)c2cc(-c3cc4c(cc3C(=O)N3Cc5ccccc5C[C@H]3CN3CCOCC3)OCO4)n3c2CCCC3)c2ccc(O)cc2)c1 [Compound 14, N-(4-hydroxyphenyl)-N-(3-methylbenzyl)-3-(6-{[(3S)-3-(morpholin-4-ylmethyl)-3,4-dihydroisoquinolin-2(1H)-yl]carbonyl}-1,3-benzodioxol-5-yl)-5,6,7,8-tetrahydroindolizine-1-carboxamide]
IC50 (BCL-2): 5 to 10 nM
IC50 (BCL-XL): 2000 to 4000 nM
CC50 (RS4-11 cells): ≤ 100 nM
CC50 (MOLT-4 cells): 2000 to 10000 nM
CC50 at 3 days [1]: > 25000 nM
EC50 [2]: > 250 nM
